Tests used:
Assay in all cases: relative viability (nuclei count vs DMSO), 5 days (fraction); higher = more cells survive
Entinostat + Linsitinib = compound: Nc1ccccc1NC(=O)c1ccc(CNC(=O)OCc2cccnc2)cc1 [Entinostat] + C[C@]1(O)C[C@@H](c2nc(-c3ccc4ccc(-c5ccccc5)nc4c3)c3c(N)nccn32)C1 [Linsitinib] (partner 1 µM)
Method in brief: (§1)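 Relative viability equals treated-well nuclei counts divided by vehicle-well nuclei counts. Counts came from 4× images of lung cancer cell lines grown in 1536-well plates for 5 days after pin-tool dosing on the day after seeding. Dosing used one drug alone or a fixed anchor-drug dose plus five library-drug doses (not always all listed) in √10 steps, and values are medians of duplicate plates.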

SGI-1776 + Foretinib = compound: CN1CCC(CNc2ccc3ncc(-c4cccc(OC(F)(F)F)c4)n3n2)CC1 [SGI-1776] + COc1cc2c(Oc3ccc(NC(=O)C4(C(=O)Nc5ccc(F)cc5)CC4)cc3F)ccnc2cc1OCCCN1CCOCC1 [Foretinib] (partner 0.25 µM)
Method in brief: as §1

SGI-1776 + Decitabine = compound: CN1CCC(CNc2ccc3ncc(-c4cccc(OC(F)(F)F)c4)n3n2)CC1 [SGI-1776] + Nc1ncn([C@H]2C[C@H](O)[C@@H](CO)O2)c(=O)n1 [Decitabine] (partner 2 µM)
Method in brief: as §1

Entinostat + Phenformin = compound: Nc1ccccc1NC(=O)c1ccc(CNC(=O)OCc2cccnc2)cc1 [Entinostat] + N=C(N)NC(=N)NCCc1ccccc1 [Phenformin] (partner 250 µM)
Method in brief: as §1

UMC-11 was tested, and the relative viability (Entinostat + Linsitinib; first compound 0.02 µM) was 1.11, the relative viability (Entinostat + Linsitinib; first compound 0.06325 µM) was 1 and the relative viability (Entinostat + Linsitinib; first compound 0.2 µM) was 0.715. It also gave a relative viability (Entinostat + Linsitinib; first compound 0.6325 µM) of 0.214, a relative viability (Entinostat + Linsitinib; first compound 2 µM) of 0.142 and a relative viability (SGI-1776 + Foretinib; first compound 0.08 µM) of 1.02. For the same cell line, the relative viability (SGI-1776 + Foretinib; first compound 0.8 µM) was 1.03, the relative viability (SGI-1776 + Foretinib; first compound 2.53 µM) was 1.08 and the relative viability (SGI-1776 + Foretinib; first compound 8 µM) was 0.791. It also gave a relative viability (SGI-1776 + Decitabine; first compound 0.08 µM) of 0.588, a relative viability (SGI-1776 + Decitabine; first compound 0.8 µM) of 0.571 and a relative viability (SGI-1776 + Decitabine; first compound 2.53 µM) of 0.654. For the same cell line, the relative viability (SGI-1776 + Decitabine; first compound 8 µM) was 0.467, the relative viability (Entinostat + Phenformin; first compound 0.02 µM) was 0.307 and the relative viability (Entinostat + Phenformin; first compound 0.06325 µM) was 0.334. The relative viability (Entinostat + Phenformin; first compound 0.2 µM) was 0.347, the relative viability (Entinostat + Phenformin; first compound 0.6325 µM) was 0.21 and the relative viability (Entinostat + Phenformin; first compound 2 µM) was 0.188.

— the supplement of paper PMC10307832
